{"source": "patent US8119694B2", "about": "“High concentration local anesthetic formulations” (priority 2008, dated 2012)", "test": "Compatibility study of drug at 40% w/w in solvent blends", "assay_type": "physicochemical", "conditions": "two week samples at accelerated conditions versus initial samples", "protocol": "The solubility and compatibility of lidocaine and lidocaine HCl in solvents typically used in topical pharmaceutical products was assessed in order to direct the formulation development efforts.\nInitially, the solubility of lidocaine and lidocaine hydrochloride was evaluated in single solvents with varying lipophilicity. […] Based on the single solvent data, a compatibility study was initiated to evaluate the chemical stability of the drug at a concentration of 40% w/w in a variety of solvent blends that would form the base of potential prototype gel or cream formulations."}
{"molecule": "CCN(CC)CC(=O)Nc1c(C)cccc1C", "note": "[lidocaine]", "values": [{"measurement": "chemical compatibility (potency) in solvent blends", "value": "absence of a drop in potency"}]}
